In PubChem BioAssay (NCI):
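These data come from cells grown in 96-well plates and exposed to compound for 48 hours at five concentrations. Here, GI50 denotes the concentration required for 50% inhibition of growth. The concentration for full growth arrest is given as TGI.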

Key:
Assay in all cases: NCI tumour cell line growth inhibition, 48 h
SF-268 CNS = system: SF-268 CNS
K-562 leukemia = system: K-562 leukemia
SNB-19 CNS = system: SNB-19 CNS
UACC-62 melanoma = system: UACC-62 melanoma
MCF7 breast = system: MCF7 breast
CAKI-1 renal = system: CAKI-1 renal
A549 NSCLC = system: A549 NSCLC
M14 melanoma = system: M14 melanoma
COLO 205 colon = system: COLO 205 colon
MOLT-4 leukemia = system: MOLT-4 leukemia
RXF 393 renal = system: RXF 393 renal
EKVX NSCLC = system: EKVX NSCLC
SW-620 colon = system: SW-620 colon
HOP-62 NSCLC = system: HOP-62 NSCLC
SF-295 CNS = system: SF-295 CNS
SK-MEL-28 melanoma = system: SK-MEL-28 melanoma
A498 renal = system: A498 renal
HCT-116 colon = system: HCT-116 colon
MDA-MB-231 breast = system: MDA-MB-231 breast
MALME-3M melanoma = system: MALME-3M melanoma
HCC-2998 colon = system: HCC-2998 colon
CCRF-CEM leukemia = system: CCRF-CEM leukemia
SR leukemia = system: SR leukemia
NCI-H460 lung = system: NCI-H460 lung
OVCAR-8 ovarian = system: OVCAR-8 ovarian
PC-3 prostate = system: PC-3 prostate
NCI-H23 lung = system: NCI-H23 lung
SNB-75 CNS = system: SNB-75 CNS
IGROV1 ovarian = system: IGROV1 ovarian

## COc1ccc(N2C(=O)C(c3ccccc3)(c3ccccc3)C23C(=O)N(C)c2ccccc23)cc1 (stereo not drawn)
SF-268 CNS
  GI50: > 100 µM
  TGI: > 100 µM
K-562 leukemia
  GI50: > 100 µM
  TGI: > 100 µM
SNB-19 CNS
  GI50: > 100 µM
  TGI: > 100 µM
UACC-62 melanoma
  GI50: > 100 µM
  TGI: > 100 µM
MCF7 breast
  GI50: > 100 µM
  TGI: > 100 µM
CAKI-1 renal
  GI50: > 100 µM
  TGI: > 100 µM
A549 NSCLC
  GI50: > 100 µM
  TGI: > 100 µM
M14 melanoma
  GI50: > 100 µM
  TGI: > 100 µM
COLO 205 colon
  GI50: > 100 µM
  TGI: > 100 µM
MOLT-4 leukemia
  GI50: > 100 µM
  TGI: > 100 µM
RXF 393 renal
  GI50: > 100 µM
  TGI: > 100 µM
EKVX NSCLC
  GI50: > 100 µM
  TGI: > 100 µM
SW-620 colon
  GI50: > 100 µM
  TGI: > 100 µM
HOP-62 NSCLC
  GI50: > 100 µM
  TGI: > 100 µM
SF-295 CNS
  GI50: > 100 µM
  TGI: > 100 µM
SK-MEL-28 melanoma
  GI50: > 100 µM
  TGI: > 100 µM
A498 renal
  GI50: > 100 µM
  TGI: > 100 µM
HCT-116 colon
  GI50: > 100 µM
  TGI: > 100 µM
MDA-MB-231 breast
  GI50: 54 µM
  TGI: > 100 µM
MALME-3M melanoma
  GI50: > 100 µM
  TGI: > 100 µM
HCC-2998 colon
  GI50: > 100 µM
  TGI: > 100 µM
CCRF-CEM leukemia
  GI50: > 100 µM
  TGI: > 100 µM
SR leukemia
  GI50: > 100 µM
  TGI: > 100 µM
NCI-H460 lung
  GI50: > 100 µM
  TGI: > 100 µM
OVCAR-8 ovarian
  GI50: > 100 µM
  TGI: > 100 µM
PC-3 prostate
  GI50: > 100 µM
  TGI: > 100 µM
NCI-H23 lung
  GI50: > 100 µM
  TGI: > 100 µM
SNB-75 CNS
  GI50: 89.1 µM
  TGI: > 100 µM
IGROV1 ovarian
  GI50: > 100 µM
  TGI: > 100 µM
